Experimental data taken from patent US20190351012A1, “TARGETING OF INTERFERON-STIMULATED GENE EXPRESSION TO TREAT INTERFERONOPATHIES” (New York University, priority 2018, published 2019).

Tested on: CDK9 at ISG56 and ISG15 promoters
Test: ChIP for CDK9 (P-TEFb) at ISG promoters in 2fTGH cells
Assay type: cell-based, human
Conditions: IFN-α 60 min in presence of TSA
Protocol: FIG. 4. HDAC activity is required for P-TEFb recruitment. (A) HeLa cells were either left untreated or treated with IFN-α for 1 h in presence or absence of 100 or 200 nM of the CDK9 inhibitor flavopiridol (Flay). Using primers spanning intron-exon junctions, nuclear pre-mRNA abundance for ISG54 and RPS11 were quantified using real-time RT-PCR and normalized to GAPDH mRNA. (B) 2fTGH cells were either left untreated or treated with IFN-α in the absence or presence of TSA for 60 min. ChIP assays were performed with antibodies against CDK9 and recovered ISG56 and ISG15 promoter sequences were quantified by real-time PCR relative to input and represented as percent of the input signal. (C) BT474 cells were either left untreated or treated with IFN-α in the absence or presence of TSA after exposure to Geldanamycin (Gelda) for 24 h, as indicated. mRNA for ISG56, OAS2 and c-Myc were quantified by real-time RT-PCR and normalized to GAPDH. […] ISG56 mRNA was quantified using real-time RT-PCR and normalized to GAPDH mRNA abundance (left panel). […] ISG56, Spt5 mRNA, and ISG54 pre-mRNA were quantified using real-time RT-PCR and normalized to GAPDH mRNA abundance.
To directly probe the involvement of P-TEFb in ISG expression, we assessed its recruitment to chromatin in response to IFN treatment. […]

`CC(/C=C/C(=O)NO)=C\[C@@H](C)C(=O)c1ccc(N(C)C)cc1` [TSA, Trichostatin A] was tested, and the “chromatin-bound CDK9 at ISG56 and ISG15 promoters” value was “not observed”.
